According to US20230270738A1, “METHODS OF TREATING AGITATION ASSOCIATED WITH ALZHEIMER'S DISEASE” (Avanir Phrmaceuticals Inc., priority 2020, published 2023):
Entries after “also recorded” stand apart in the source; their conditions may differ. Structures can show the parent of a compound that is named as a salt.

Columns and labels:
[1] = Plasma concentrations of d6-DM, d6-DM metabolites and Q by CYP2D6 metabolizer group; format: in vivo, human; settings: for Plasma concentration/exposure in relation to d6-DM dose of AVP-786: AVP-786-28 vs AVP-786-42.63; for Changes in plasma concentrations from Week 6 to Week 12: all patients combined, sample 0-3 hours after morning dose; for Plasma concentration by CYP2D6 metabolizer group: poor, intermediate, extensive, ultra-rapid metabolizers
Description: Plasma samples were separated by centrifugation and frozen at −20° C. until assayed at the analytical unit.

P-glycoprotein = P-glycoprotein (Homo sapiens, UniProt P08183); settings: cited from earlier work
P-glycoprotein, sequence (P08183 whole entry): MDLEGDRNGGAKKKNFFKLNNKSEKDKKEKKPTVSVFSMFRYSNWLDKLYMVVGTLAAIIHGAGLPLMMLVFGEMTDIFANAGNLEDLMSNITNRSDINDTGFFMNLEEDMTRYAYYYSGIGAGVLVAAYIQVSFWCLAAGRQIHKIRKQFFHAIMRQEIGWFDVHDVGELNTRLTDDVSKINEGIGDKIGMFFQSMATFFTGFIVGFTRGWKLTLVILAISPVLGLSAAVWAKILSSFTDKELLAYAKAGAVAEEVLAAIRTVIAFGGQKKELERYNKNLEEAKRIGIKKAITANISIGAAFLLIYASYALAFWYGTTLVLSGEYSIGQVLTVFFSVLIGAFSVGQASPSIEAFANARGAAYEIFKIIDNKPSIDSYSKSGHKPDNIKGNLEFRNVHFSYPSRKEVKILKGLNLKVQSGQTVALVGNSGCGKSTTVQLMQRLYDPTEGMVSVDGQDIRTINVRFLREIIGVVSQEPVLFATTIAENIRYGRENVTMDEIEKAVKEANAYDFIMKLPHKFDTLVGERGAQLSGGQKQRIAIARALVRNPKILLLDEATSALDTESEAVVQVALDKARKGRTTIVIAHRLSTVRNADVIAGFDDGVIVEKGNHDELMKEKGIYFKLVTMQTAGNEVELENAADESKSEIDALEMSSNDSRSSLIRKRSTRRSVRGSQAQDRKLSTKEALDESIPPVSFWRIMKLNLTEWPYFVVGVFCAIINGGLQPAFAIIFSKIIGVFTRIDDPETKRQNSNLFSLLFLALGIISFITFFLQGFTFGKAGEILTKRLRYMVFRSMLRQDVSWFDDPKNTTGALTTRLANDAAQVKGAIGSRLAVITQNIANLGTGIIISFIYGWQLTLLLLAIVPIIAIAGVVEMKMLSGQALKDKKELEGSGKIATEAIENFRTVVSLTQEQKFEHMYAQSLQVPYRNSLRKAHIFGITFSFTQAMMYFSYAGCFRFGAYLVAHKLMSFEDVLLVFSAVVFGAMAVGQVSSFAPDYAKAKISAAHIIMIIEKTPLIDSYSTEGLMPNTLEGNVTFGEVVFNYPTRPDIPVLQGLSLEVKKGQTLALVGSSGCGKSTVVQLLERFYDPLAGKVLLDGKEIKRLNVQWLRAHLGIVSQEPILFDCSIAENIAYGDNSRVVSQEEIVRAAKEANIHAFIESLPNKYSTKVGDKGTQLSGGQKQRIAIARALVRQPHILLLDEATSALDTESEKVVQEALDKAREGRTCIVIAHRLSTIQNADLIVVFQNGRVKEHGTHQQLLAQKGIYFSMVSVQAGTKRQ

sigma-1 receptor = sigma-1 receptor (Homo sapiens, UniProt Q99720); settings: cited from earlier work
sigma-1 receptor, sequence (Q99720 whole entry, species assumed): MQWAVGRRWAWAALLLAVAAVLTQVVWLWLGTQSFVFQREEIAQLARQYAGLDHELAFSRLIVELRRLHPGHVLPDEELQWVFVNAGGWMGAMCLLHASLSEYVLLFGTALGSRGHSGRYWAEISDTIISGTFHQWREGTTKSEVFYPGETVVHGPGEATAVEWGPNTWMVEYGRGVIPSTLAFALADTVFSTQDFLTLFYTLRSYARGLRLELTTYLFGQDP

SMILES	Plasma concentration/exposure in relation to d6-DM dose of AVP-786 [1]	Changes in plasma concentrations from Week 6 to Week 12 [1]	Plasma concentration by CYP2D6 metabolizer group [1]	P-glycoprotein inhibition (P-glycoprotein)	Plasma concentration/exposure in relation to d6-DM dose of AVP-786 ([1]; hydrobromide)	receptor binding (sigma-1 receptor)
[2H]C([2H])([2H])N1CCC23CCCCC2C1Cc1ccc(O)cc13 (centres unmarked) [d3-DX, d3-dextrorphan]	generally higher; also recorded: increased with the increase in d6-DM dose	did not appear to be any significant changes	lowest in the poor metabolizer group and highest in the extensive and ultra-rapid metabolizer groups			
C=C[C@H]1C[N@@]2CC[C@H]1C[C@@H]2[C@@H](O)c1ccnc2ccc(OC)cc12 [Q, Quinidine, reference compound]		did not appear to be any significant changes				
[2H]C([2H])([2H])Oc1ccc2c(c1)C13CCCCC1C(C2)NCC3 (centres unmarked) [d3-3-MM, d3-3-methoxymorphinan]		did not appear to be any significant changes	highest in the poor and intermediate metabolizer groups and lowest in the ultra-rapid metabolizer group			
C=C[C@H]1C[N@]2CC[C@@H]1C[C@@H]2[C@@H](O)c1ccnc2ccc(OC)cc12 [Quinidine, quinidine sulfate]				P-glycoprotein inhibitor		
[2H]C([2H])([2H])Oc1ccc2c(c1)[C@]13CCCC[C@@H]1[C@H](C2)N(C([2H])([2H])[2H])CC3 [d6-DM, deuterated [d6]-dextromethorphan hydrobromide]		did not appear to be any significant changes	highest in the poor and intermediate metabolizer groups and lowest in the ultra-rapid metabolizer group		generally higher; also recorded: increased with the increase in d6-DM dose	binds to the sigma-1 receptor
